{"source": "PubChem BioAssay (NCI)", "note": "Values joined by “and” are separate entries in the source; they are usually repeats but may differ in a detail not shown here. Equal values may be shown once.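 Cells were grown in 96-well plates and exposed to each compound for 48 hours at five concentrations; endpoints were interpolated linearly between bracketing concentrations, or set to the highest concentration if not reached. GI50 = concentration required for 50% inhibition of growth. TGI: concentration producing complete growth inhibition.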", "data": [{"tested_on": "ACHN renal", "experiment": "DTP human tumour cell line panel, 48 h", "units": {"GI50": "µM", "TGI": "µM"}, "values": [{"smiles": "COC(=O)/C=C/c1cc(OC(C)=O)c2c(c1)[C@@H](C(=O)OC)[C@H](c1ccc(OC(C)=O)c(OC(C)=O)c1)O2", "GI50": 0.0705, "TGI": 52.5}]}, {"tested_on": "NCI-H23 lung", "experiment": "DTP human tumour cell line panel, 48 h", "values": [{"smiles": "O=C1OCC2=C1C(c1cccc(Br)c1)c1cc3c(cc1N2CCO)OCCO3", "note": "(stereo not given)", "GI50": "0.0911 µM", "TGI": "> 44.5 µM"}, {"smiles": "COc1cc(-c2nc3sccn3c2-c2ccnc(NCCNS(=O)(=O)c3ccc(F)cc3)n2)ccc1F", "GI50": "2.96 µM", "TGI": "> 100 µM"}, {"smiles": "COc1cc(-c2nn(-c3cccc(NC(=O)c4ccccc4)c3)cc2-c2ccncc2)ccc1Cl", "GI50": "1.12 µM", "TGI": "> 100 µM"}, {"smiles": "Cc1cc(Nc2ccc(C)c(Cl)c2)n2nc(C(F)(F)F)nc2n1", "GI50": "29.4 µM", "TGI": "> 100 µM"}, {"smiles": "COc1ccc(Cn2c(Br)c3c(c2Br)-c2nc(N)sc2CC3)cc1", "GI50": "10.6 µM", "TGI": "38.6 µM"}, {"smiles": "O=C1CSC(=S)N1/N=C/c1ccc(Cl)c([N+](=O)[O-])c1", "TGI": "31.9 µM"}, {"smiles": "CCOc1ccc(NC2=CC(=O)C(=O)c3ccccc32)cc1", "TGI": "3.93 µM"}, {"smiles": "COc1cc2c(cc1OC)-c1cc(OC)c(OC)cc1C(CN(C)C)C2", "note": "(stereo not given)", "GI50": "> 10 µM", "TGI": "> 10 µM"}, {"smiles": "O=C1c2ccccc2C(=O)c2c(/C=C\\N3CCCCC3)ccnc21", "TGI": "1.31 µM"}, {"smiles": "C=C1C[C@H](O)[C@H](Br)C(C)(C)[C@@]12CCC(C)=C(Cl)C2", "GI50": "0.173 µM", "TGI": "2.99 µM"}, {"smiles": "O=C(NC1CCCCC1)NS(=O)(=O)c1ccc(N2N=C3c4ccccc4CC3C2c2ccc(Cl)cc2)cc1", "note": "(stereo not given)", "GI50": "12.2 µM", "TGI": "36.2 µM"}, {"smiles": "c1ccc(-c2n(Cc3ccc4ccccc4n3)cc[n+]2Cc2ccc3ccccc3c2)cc1", "GI50": "0.731 µM", "TGI": "4.87 µM"}, {"smiles": "C[C@@H]1CC[C@H]2C(C)(C)[C@H]3C[C@@]12CC[C@@]3(C)O", "TGI": "> 100 µM"}, {"smiles": "CC(C)(C)[Si](C)(C)OC1[C@@H](O[Si](C)(C)C(C)(C)C)[C@@H](CNC(=O)NC(=O)C(F)(F)F)O[C@H]1n1cnc2c(NC(=O)Nc3ccccc3)ncnc21", "note": "(stereo not given in full)", "GI50": "8.77 µM", "TGI": "16.6 µM"}, {"smiles": "CCOC(=O)n1cc(C2=C(c3ccc(OC)c(OC)c3)COC2=O)c2ccccc21", "GI50": "0.157 µM", "TGI": "> 100 µM"}, {"smiles": "CC(=C(c1ccc(OCCN2CCCCC2)cc1)c1ccc(OCCN2CCCCC2)cc1)c1ccc(Cl)cc1", "GI50": "0.466 µM", "TGI": "0.913 µM"}, {"smiles": "C=CC(=O)Nc1cc(Nc2nccc(-c3cn(C)c4ccccc34)n2)c(OC)cc1N(C)CCN(C)C", "GI50": "4.76 µM and 3.39 µM", "TGI": "17.9 µM and > 10 µM"}, {"smiles": "C=C1C(=O)O[C@H]2[C@H]1CC/C(CNC(=O)c1cc3ccccc3[nH]1)=C\\CC[C@@]1(C)O[C@@H]21", "GI50": "1.68 µM", "TGI": "4.26 µM"}, {"smiles": "Cc1cc2c(cc1C)[n+](=O)c(C(=O)c1ccccc1)c(C(F)F)n2[O-]", "GI50": "26.3 µM", "TGI": "> 100 µM"}, {"smiles": "COc1cc2c(cc1OC)C(Cl)C(c1ccc(F)cc1)=C2Cl", "note": "(stereo not given)", "TGI": "16.5 µM"}, {"smiles": "CN(C)c1ccc(/C=N/NC(=S)Nc2ccccc2)cc1", "TGI": "> 100 µM"}, {"smiles": "COc1ccc2ncnc(Nc3ccc(OCc4ccccc4)cc3)c2c1", "GI50": "8.48 µM", "TGI": "> 25 µM"}, {"smiles": "O=C1c2c(F)c(F)c(F)c(F)c2C(=O)N1c1ccc(F)cc1F", "GI50": "3.82 µM", "TGI": "9.82 µM"}, {"smiles": "CC(C)[C@@H]1NC(=O)[C@]2(C)CSC(=N2)c2ccnc(c2)CNC(=O)C[C@@H](/C=C/CCS)OC1=O", "GI50": "0.303 µM", "TGI": "> 31.4 µM"}, {"smiles": "OC(c1cc(C(F)(F)F)nc2c(C(F)(F)F)cccc12)C1CCCCN1", "note": "(stereo not given)", "GI50": "2.85 µM", "TGI": "11.3 µM"}, {"smiles": "COC(=O)/C=C/c1cc(OC(C)=O)c2c(c1)[C@@H](C(=O)OC)[C@H](c1ccc(OC(C)=O)c(OC(C)=O)c1)O2", "GI50": "0.0912 µM", "TGI": "29.7 µM"}]}, {"tested_on": "OVCAR-5 ovarian", "experiment": "DTP human tumour cell line panel, 48 h", "values": [{"smiles": "O=C1OCC2=C1C(c1cccc(Br)c1)c1cc3c(cc1N2CCO)OCCO3", "note": "(stereo not given)", "GI50": "0.221 µM", "TGI": "> 33.7 µM"}, {"smiles": "COc1cc(-c2nc3sccn3c2-c2ccnc(NCCNS(=O)(=O)c3ccc(F)cc3)n2)ccc1F", "GI50": "6.51 µM", "TGI": "> 100 µM"}, {"smiles": "COc1cc(-c2nn(-c3cccc(NC(=O)c4ccccc4)c3)cc2-c2ccncc2)ccc1Cl", "GI50": "12.8 µM", "TGI": "> 100 µM"}, {"smiles": "Cc1cc(Nc2ccc(C)c(Cl)c2)n2nc(C(F)(F)F)nc2n1", "GI50": "38 µM", "TGI": "> 100 µM"}, {"smiles": "COc1ccc(Cn2c(Br)c3c(c2Br)-c2nc(N)sc2CC3)cc1", "GI50": "16 µM", "TGI": "50.5 µM"}, {"smiles": "O=C1CSC(=S)N1/N=C/c1ccc(Cl)c([N+](=O)[O-])c1", "TGI": "> 100 µM"}, {"smiles": "CCOc1ccc(NC2=CC(=O)C(=O)c3ccccc32)cc1", "TGI": "9.46 µM"}, {"smiles": "COc1cc2c(cc1OC)-c1cc(OC)c(OC)cc1C(CN(C)C)C2", "note": "(stereo not given)", "GI50": "> 10 µM", "TGI": "> 10 µM"}, {"smiles": "O=C1c2ccccc2C(=O)c2c(/C=C\\N3CCCCC3)ccnc21", "TGI": "16.2 µM"}, {"smiles": "C=C1C[C@H](O)[C@H](Br)C(C)(C)[C@@]12CCC(C)=C(Cl)C2", "GI50": "0.342 µM", "TGI": "8.87 µM"}, {"smiles": "O=C(NC1CCCCC1)NS(=O)(=O)c1ccc(N2N=C3c4ccccc4CC3C2c2ccc(Cl)cc2)cc1", "note": "(stereo not given)", "GI50": "25.5 µM", "TGI": "80.4 µM"}, {"smiles": "c1ccc(-c2n(Cc3ccc4ccccc4n3)cc[n+]2Cc2ccc3ccccc3c2)cc1", "GI50": "2.05 µM", "TGI": "7.27 µM"}, {"smiles": "C[C@@H]1CC[C@H]2C(C)(C)[C@H]3C[C@@]12CC[C@@]3(C)O", "TGI": "> 100 µM"}, {"smiles": "CC(C)(C)[Si](C)(C)OC1[C@@H](O[Si](C)(C)C(C)(C)C)[C@@H](CNC(=O)NC(=O)C(F)(F)F)O[C@H]1n1cnc2c(NC(=O)Nc3ccccc3)ncnc21", "note": "(stereo not given in full)", "GI50": "7.89 µM", "TGI": "14.6 µM"}, {"smiles": "CCOC(=O)n1cc(C2=C(c3ccc(OC)c(OC)c3)COC2=O)c2ccccc21", "GI50": "0.199 µM", "TGI": "> 100 µM"}, {"smiles": "CC(=C(c1ccc(OCCN2CCCCC2)cc1)c1ccc(OCCN2CCCCC2)cc1)c1ccc(Cl)cc1", "GI50": "0.417 µM", "TGI": "0.771 µM"}, {"smiles": "C=CC(=O)Nc1cc(Nc2nccc(-c3cn(C)c4ccccc34)n2)c(OC)cc1N(C)CCN(C)C", "GI50": "1.3 µM and 1.29 µM", "TGI": "2.95 µM and 6.55 µM"}, {"smiles": "C=C1C(=O)O[C@H]2[C@H]1CC/C(CNC(=O)c1cc3ccccc3[nH]1)=C\\CC[C@@]1(C)O[C@@H]21", "GI50": "2.37 µM", "TGI": "6.26 µM"}, {"smiles": "Cc1cc2c(cc1C)[n+](=O)c(C(=O)c1ccccc1)c(C(F)F)n2[O-]", "GI50": "36.4 µM", "TGI": "> 100 µM"}, {"smiles": "COc1cc2c(cc1OC)C(Cl)C(c1ccc(F)cc1)=C2Cl", "note": "(stereo not given)", "TGI": "30.2 µM"}, {"smiles": "CN(C)c1ccc(/C=N/NC(=S)Nc2ccccc2)cc1", "TGI": "> 100 µM"}, {"smiles": "COc1ccc2ncnc(Nc3ccc(OCc4ccccc4)cc3)c2c1", "GI50": "6.57 µM", "TGI": "> 22.6 µM"}, {"smiles": "O=C1c2c(F)c(F)c(F)c(F)c2C(=O)N1c1ccc(F)cc1F", "GI50": "12.6 µM", "TGI": "26.5 µM"}, {"smiles": "CC(C)[C@@H]1NC(=O)[C@]2(C)CSC(=N2)c2ccnc(c2)CNC(=O)C[C@@H](/C=C/CCS)OC1=O", "GI50": "0.156 µM", "TGI": "> 100 µM"}, {"smiles": "OC(c1cc(C(F)(F)F)nc2c(C(F)(F)F)cccc12)C1CCCCN1", "note": "(stereo not given)", "GI50": "2.88 µM", "TGI": "10.4 µM"}, {"smiles": "COC(=O)/C=C/c1cc(OC(C)=O)c2c(c1)[C@@H](C(=O)OC)[C@H](c1ccc(OC(C)=O)c(OC(C)=O)c1)O2", "GI50": "0.95 µM", "TGI": "> 100 µM"}]}, {"tested_on": "UO-31 renal", "experiment": "DTP human tumour cell line panel, 48 h", "units": {"GI50": "µM", "TGI": "µM"}, "values": [{"smiles": "O=C1OCC2=C1C(c1cccc(Br)c1)c1cc3c(cc1N2CCO)OCCO3", "note": "(stereo not given)", "GI50": 0.127, "TGI": 36.5}, {"smiles": "COc1cc(-c2nc3sccn3c2-c2ccnc(NCCNS(=O)(=O)c3ccc(F)cc3)n2)ccc1F", "GI50": 1.29, "TGI": "> 100"}, {"smiles": "COc1cc(-c2nn(-c3cccc(NC(=O)c4ccccc4)c3)cc2-c2ccncc2)ccc1Cl", "GI50": 0.4}, {"smiles": "Cc1cc(Nc2ccc(C)c(Cl)c2)n2nc(C(F)(F)F)nc2n1", "GI50": 14.1, "TGI": 33.4}, {"smiles": "COc1ccc(Cn2c(Br)c3c(c2Br)-c2nc(N)sc2CC3)cc1", "GI50": 1.59, "TGI": 3.97}, {"smiles": "O=C1CSC(=S)N1/N=C/c1ccc(Cl)c([N+](=O)[O-])c1", "TGI": 71}, {"smiles": "CCOc1ccc(NC2=CC(=O)C(=O)c3ccccc32)cc1", "TGI": 13.5}, {"smiles": "COc1cc2c(cc1OC)-c1cc(OC)c(OC)cc1C(CN(C)C)C2", "note": "(stereo not given)", "GI50": "> 10", "TGI": "> 10"}, {"smiles": "O=C1c2ccccc2C(=O)c2c(/C=C\\N3CCCCC3)ccnc21", "TGI": 23.4}, {"smiles": "C=C1C[C@H](O)[C@H](Br)C(C)(C)[C@@]12CCC(C)=C(Cl)C2", "GI50": 0.612, "TGI": 3.25}, {"smiles": "O=C(NC1CCCCC1)NS(=O)(=O)c1ccc(N2N=C3c4ccccc4CC3C2c2ccc(Cl)cc2)cc1", "note": "(stereo not given)", "GI50": 20, "TGI": 40.7}, {"smiles": "c1ccc(-c2n(Cc3ccc4ccccc4n3)cc[n+]2Cc2ccc3ccccc3c2)cc1", "GI50": 2.93, "TGI": 13.2}, {"smiles": "C[C@@H]1CC[C@H]2C(C)(C)[C@H]3C[C@@]12CC[C@@]3(C)O", "TGI": "> 100"}]}]}
